Source: patent US4167511A, “Methylsilacyclopentenyl-containing silylating agents and method therefor” (Dow Corning Corporation, priority 1978, dated 1979)

Assay: Silylating power: half-life of silylating agent in excess isopropyl alcohol at 35° C. (1H n.m.r.)
Assay type: physicochemical
Settings: for Half-life in Excess Isopropanol: 0.1 ml. silylating agent in 0.5 ml. anhydrous isopropyl alcohol, 35° C., n.m.r.
From the text: The compositions of this invention have unexpected silylating power. By the terms silylating and silylation it is meant a process wherein an active-hydrogen, i.e. one bond to an oxygen, sulfur or nitrogen atom, in a compound is replaced with a hydrocarbon-substituted silyl radical. Silylation, according to the process of this invention proceeds rapidly and, in many cases, essentially quantitatively thereby replacing an active-hydrogen with a methylsilacyclopentenyl radical. By silylating power it is meant the ability of a silylating agent to silylate isopropyl alcohol as indicated by the half-life of the silylating agent in excess isopropyl alcohol at 35° C., using standard chemical kinetic measuring methods hereinafter described. Silylating power is inversely related to said half-life.
Standard nuclear magnetic resonance (n.m.r.) tubes, 5 mm. O.D.×205 mm. long, were first charged with 0.1 ml. of the silylating agents listed in the Table and then with 0.5 ml. of anhydrous isopropyl alcohol using a dry box to insure anhydrous conditions. Immediately after the addition of isopropyl alcohol the tubes were stoppered, inverted at least once to mix the reactants, removed from the dry box, and, within 30 seconds after the addition of isopropyl alcohol, were placed in a varian A-60 ^1 H n.m.r. spectometer at 35° C. The n.m.r. spectrometer was preset to record the signal of the hydrogen atoms in the silicon-bonded methyl group. In repeat experiments the n.m.r. spectrometer was preset to record the signal of the hydrogen atoms in the methyl groups of N-methylacetamideor the nitrogen-bound hydrogen atom in epsilon-caprolactam. Where possible the reaction was followed by taking several readings of the appropriate n.m.r. signal intensity over a period of time.
The compositions of this invention have a half-life which is too short to measure by this technique since they are completely reacted before the reaction mixture is placed in the n.m.r. spectrometer.

Molecule | Half-life in Excess Isopropanol [min] | silylating power (compared in words with triorganosilyl analogs, inversely related to half-life in excess isopropyl alcohol at 35° C.)
CC(=O)N(C)[Si](C)(C)CCC(F)(F)F | 40 | –
CC(=O)N(C)[Si](C)(C)c1ccccc1 | 55 | –
methylsilacyclopentenyl-N-methylacetamide | – | greater than that of trimethylsilyl-N-methylacetamide, dimethylvinylsilyl-N-methylacetamide, dimethylphenylsilyl-N-methylacetamide and dimethyl-3,3,3-trifluoropropylsllyl-N-methylacetamide
C=C[Si](C)(C)N(C)C(C)=O | 240 | –
